The values below come from patent US20240409585A1, “MACROCYCLIC IMMUNOMODULATORS” (priority 2021, published 2024).

Like-named read-outs stand apart in the source and are kept apart here. Bridge positions count the residues as written; N and C are the ends. Square brackets hold non-standard residues; d marks the D form. Peptide text beside a SMILES is read from it. * marks the point of attachment. Bip(4'-COOH) = N[C@@H](Cc1ccc(-c2ccc(C(=O)O)cc2)cc1)C(=O)O; Bip(4'-NHAc) = CC(=O)Nc1ccc(-c2ccc(C[C@H](N)C(=O)O)cc2)cc1; Phe(4-CONH2) = NC(=O)c1ccc(C[C@H](N)C(=O)O)cc1; Phe(4-COOH) = N[C@@H](Cc1ccc(C(=O)O)cc1)C(=O)O; Bip = N[C@@H](Cc1ccc(-c2ccccc2)cc1)C(=O)O; Phe(3-Me) = Cc1cccc(C[C@H](N)C(=O)O)c1; Val(3-OH) = CC(C)(O)[C@H](N)C(=O)O; hPhe = N[C@@H](CCc1ccccc1)C(=O)O; Cha = N[C@@H](CC1CCCCC1)C(=O)O; Carboxymethyl = O=C(O)C*; NMeA = CN[C@@H](C)C(=O)O; Nle = CCCC[C@H](N)C(=O)O; Orn = NCCC[C@H](N)C(=O)O; Dab = NCC[C@H](N)C(=O)O

Assay [1] has as its target T1, PE-labeled human PD-L1-Ig binding to Jurkat cell line over-expressing human PD-1 (Jurkat-PD-1) (Homo sapiens, UniProt Q15116).
T1 construct: expressed in transfected cells; host or cells: Jurkat
Put plainly: Jurkat-PD-1 Cell Binding High-Content Screening Assay (CBA): Method 1. Conditions: Jurkat-PD-1 cells, PE-labeled PD-L1-Ig; μM; read-out: CBA Method 1 μM.

Assay [2] deals with T1, PE-labeled human PD-L1-Ig binding to Jurkat cell line over-expressing human PD-1 (Jurkat-PD-1). The assay is described as follows: Jurkat-PD-1 Cell Binding High-Content Screening Assay (CBA): Method 2 (presence and absence of tween-20). Conditions: Jurkat-PD-1 cells, PE-labeled PD-L1-Ig 20 nM; presence or absence of tween-20 not given; head μM; read-out: CBA Method 2 μM. On the procedure:
Jurkat-PD-1 Cell Binding High-Content Screening Assay (CBA): Method 2
Phycoerythrin (PE) was covalently linked to the Ig epitope tag of human PD-L1-Ig and fluorescently labeled PD-L1-Ig was used for binding studies with a Jurkat cell line over-expressing human PD-1 (Jurkat-PD-1). […] 100 nl of compound was added to cells followed by incubation at 37° C. for 2 hours. To interrogate potential issues with compound aggregation, compounds were tested in the presence and absence of tween-20 detergent. […] Then, 5 μl of PE-labeled PD-L1-Ig (20 nM final), diluted in DMEM supplemented with 10% fetal calf serum. […] Data was collected and processed using a Cell Insight NXT High Content Imager and associated software.

The target in assay [3] is T2, Alexa fluor-647 labeled human PD-L1-Ig binding to Jurkat cell line over-expressing human PD-1 (Homo sapiens, UniProt Q15116).
T2 construct: expressed in transfected cells; host or cells: Jurkat
The assay is described as follows: Jurkat-PD-1 Cell Binding High-Content Screening Assay (CBA): Method 3 (Alexa fluor-647 labeled PD-L1-Ig). The conditions noted are these: Jurkat-PD-1 cells, Alexa fluor-647 labeled PD-L1-Ig 177 nM. The gist of the method: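 Jurkat cells over-expressing human PD-1 in RPMI/10% FCS were preincubated 2 h at 37 °C with compound, then exposed 1 h to Alexa fluor-647 labeled human PD-L1-Ig (177 nM final). Cells fixed in 4% paraformaldehyde with Hoechst 33342 and binding quantified by high-content imaging.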

T1 sequence (Q15116 25-288): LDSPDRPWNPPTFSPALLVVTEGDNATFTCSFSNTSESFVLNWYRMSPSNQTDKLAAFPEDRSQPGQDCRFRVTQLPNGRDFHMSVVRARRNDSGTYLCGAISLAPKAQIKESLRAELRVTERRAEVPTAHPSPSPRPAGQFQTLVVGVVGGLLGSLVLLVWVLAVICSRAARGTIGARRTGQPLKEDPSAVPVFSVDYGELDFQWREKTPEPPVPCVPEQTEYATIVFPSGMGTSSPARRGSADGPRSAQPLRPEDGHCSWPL
T2 sequence (Q15116 25-288): as above

On to `COC[C@@H]1NC(=O)CSC[C@@H](C(=O)N[C@@H](CCN)C(N)=O)NC(=O)[C@H](CCCN)NC(=O)[C@H](C(C)C)NC(=O)[C@H](CC2CCCCC2)NC(=O)[C@H](CCN)NC(=O)[C@@H](CC(C)C)NC(=O)[C@H](C)N(C)C(=O)[C@H](CCC(N)=O)NC(=O)[C@H](Cc2ccc(-c3ccccc3)cc2)NC(=O)[C@H](Cc2ccc(-c3ccc(C(=O)O)cc3)cc2)NC(=O)[C@H](Cc2cccc(C)c2)NC(=O)[C@H](CC(=O)O)NC(=O)[C@H](Cc2ccc(OCC(=O)O)cc2)NC1=O` [Example 5057] ({CH2CO}-S(Me)Y(Carboxymethyl)D[Phe(3-Me)][Bip(4'-COOH)][Bip]Q[NMeA][dL][Dab][Cha]V[Orn]C[Dab]-NH2; thioether N-14), for which the IC50 turned out to be 0.0089 µM in assay [1] and 0.0106 µM in assay [2].

In the case of `CCCC[C@@H]1NC(=O)CSC[C@@H](C(=O)N[C@@H](CCN)C(N)=O)NC(=O)[C@H](CO)NC(=O)[C@H](C(C)(C)O)NC(=O)[C@H](CC2CCCCC2)NC(=O)[C@H](CCN)NC(=O)[C@@H](CC(C)C)NC(=O)[C@H](C)N(C)C(=O)[C@H](Cc2ccc(C(N)=O)cc2)NC(=O)[C@H](Cc2ccc(-c3ccccc3)cc2)NC(=O)[C@H](Cc2ccc(-c3ccc(NC(C)=O)cc3)cc2)NC(=O)[C@H](Cc2cccc(C)c2)NC(=O)[C@H](CC(=O)O)NC(=O)[C@H](Cc2ccc(OCC(=O)O)cc2)NC1=O` [Example 5069] ({CH2CO}-[Nle]Y(Carboxymethyl)D[Phe(3-Me)][Bip(4'-NHAc)][Bip][Phe(4-CONH2)][NMeA][dL][Dab][Cha][Val(3-OH)]SC[Dab]-NH2; thioether N-14), the IC50 in assay [1] came to 0.0136 µM; in assay [2], 0.0131 µM. In the case of `Cc1cccc(C[C@@H]2NC(=O)[C@H](CC(=O)O)NC(=O)[C@H](Cc3ccc(OCC(=O)O)cc3)NC(=O)[C@H](CCc3ccccc3)NC(=O)CSC[C@@H](C(=O)N[C@@H](CCN)C(N)=O)NC(=O)[C@H](CCCN)NC(=O)[C@H](C(C)C)NC(=O)[C@H](CC3CCCCC3)NC(=O)[C@H](CCN)NC(=O)[C@@H](CC(C)C)NC(=O)[C@H](C)N(C)C(=O)[C@H](CCC(N)=O)NC(=O)[C@H](Cc3ccc(-c4ccccc4)cc3)NC(=O)[C@H](Cc3ccc(C(=O)O)cc3)NC2=O)c1` [Example 5265] ({CH2CO}-[hPhe]Y(Carboxymethyl)D[Phe(3-Me)][Phe(4-COOH)][Bip]Q[NMeA][dL][Dab][Cha]V[Orn]C[Dab]-NH2; thioether N-14), in assay [3] (head μM, read-out: CBA Method 3 μM), the IC50 was 0.03 µM.

For the compound `Cc1cccc(C[C@@H]2NC(=O)[C@H](CC(=O)O)NC(=O)[C@H](Cc3ccc(OCC(=O)O)cc3)NC(=O)[C@H](CCC(=O)O)NC(=O)CSC[C@@H](C(=O)N[C@@H](CCN)C(N)=O)NC(=O)[C@H](CCCN)NC(=O)[C@H](C(C)C)NC(=O)[C@H](CC3CCCCC3)NC(=O)[C@H](CCN)NC(=O)[C@@H](CC(C)C)NC(=O)[C@H](C)N(C)C(=O)[C@H](CCC(N)=O)NC(=O)[C@H](Cc3ccc(-c4ccccc4)cc3)NC(=O)[C@H](Cc3ccc(C(=O)O)cc3)NC2=O)c1` [Example 5170] ({CH2CO}-EY(Carboxymethyl)D[Phe(3-Me)][Phe(4-COOH)][Bip]Q[NMeA][dL][Dab][Cha]V[Orn]C[Dab]-NH2; thioether N-14), the IC50 in assay [3] (nM, read-out: CBA Method 3) was determined as 0.0059 µM.

Turning to `Cc1cccc(C[C@@H]2NC(=O)[C@H](CC(=O)O)NC(=O)[C@H](Cc3ccc(OCC(=O)O)cc3)NC(=O)[C@H](C)NC(=O)CSC[C@@H](C(=O)N[C@@H](CCN)C(N)=O)NC(=O)[C@H](CCC(=O)O)NC(=O)[C@H](C(C)C)NC(=O)[C@H](CC3CCCCC3)NC(=O)[C@H](CCN)NC(=O)[C@@H](CC(C)C)NC(=O)[C@H](C)N(C)C(=O)[C@H](Cc3ccc(C(=O)O)cc3)NC(=O)[C@H](Cc3ccc(-c4ccccc4)cc3)NC(=O)[C@H](Cc3ccc(C(=O)O)cc3)NC2=O)c1` [Example 5137] ({CH2CO}-AY(Carboxymethyl)D[Phe(3-Me)][Phe(4-COOH)][Bip][Phe(4-COOH)][NMeA][dL][Dab][Cha]VEC[Dab]-NH2; thioether N-14), the IC50 in assay [3] (nM, read-out: CBA Method 3) came out at 0.0044 µM.
